According to patent EP4332093A1, “SALT CONTAINING PIPERAZINE POLYCYCLIC DERIVATIVE, CRYSTAL FORM THEREOF, PREPARATION METHOD THEREFOR, AND USE THEREOF” (Shanghai Hansoh Biomedical Co., Ltd., priority 2021, dated 2022):
Counter-ions that a name gives are not always drawn.

How the values were obtained:
Assay type in all cases: physicochemical
[1] = Pressure crystal transformation test; details: tablet press at maximum pressure
Description: The tablet press was adjusted to the maximum pressure. It was pressed into a tablet and then was subjected to PXRD characterization.

[2] = Grinding crystal transformation test; details: ground in a mortar for 5 min
[3] = Hygroscopicity experiment of crystal form A of hydrochloride
[4] = Solid stability experiment of crystal forms of salt (5 and 10 days); details: all conditions: light 5000lx, 60°C, 92.5% RH, 50°C 75% RH; 5 and 10 days
Procedure: About 1 mg of different crystal forms of salt were taken and placed under the conditions of light 5000lx, high temperature 60°C, high humidity 92.5%RH, high temperature and high humidity 50°C 75%RH for 5 days and 10 days. The salt content was determined by HPLC and external standard method, and the change of relevant substances was calculated by chromatographic peak area normalization method.

[5] = Salt form quantification (HPLC-ELSD); details: Conclusion from Cl- content compared with theoretical values
Procedure: The number of acids binding in the salt form was quantified by HPLC-ELSD test. An appropriate amount of NaCl was weighed, and a series of linear solutions of different concentrations with the diluent acetonitrile-water (50:50) was prepared. […] The above linear solution and hydrochloride samples solution was taken to filter. [table]

[6] = Thermodynamic stability experiment of crystal form (pulping in solvents, XRPD); details: for Results after pulping (crystal form by XRPD): pulped for 1 week at room temperature and 50°C
Procedure: An organic solvent with a certain solubility was selected. […] The supernatant was discarded, and the solid was dried in vacuum (-0.1 Mpa) overnight at 50°C. The XRPD of the solid was determined and compared with XRPD of raw compound salt.

[7] = Crystal form stability study of hydrochloride for 30 days; details: 30 days; light 5000lux, 60°C, 92.5% RH, 40°C & 75% RH
Procedure: The diluent 80% methanol solution was added to prepare a solution containing about 0.5 mg/mL hydrochloride. The mixture was sonicated for 30min to produce a clear solution. 1mL of the soluion was filtered and measured by HPLC. See "2.3.4" for the HPLC analysis method. The content of related substances was calculated according to the peak area normalization method, and the results are shown in Table 32 below. Table 32 HPLC data of hydrochloride in stability experimental conditions for 30 days

## O=C(N[C@H]1C[C@H](CCN2CCN(c3cccc(Cl)c3Cl)CC2)C1)c1ncco1 [crystal form A of hydrochloride]
[1]
  crystal transformation before and after pressure (PXRD): didn't undergo crystal transformation
[2]
  crystal transformation before and after grinding (PXRD): didn't undergo crystal transformation
[3]
  hygroscopicity: slightly hygroscopic
[3]; 2 cycles, 0 to 95% relative humidity
  XRPD pattern after humidification and dehumidification: does not change
[3]; RH 80%
  hygroscopic weight gain: 0.509%
[4]
  crystal form stability (impurities): stable under all conditions
[5]
  The number of hydrochloric acid binding: The number of hydrochloric acid binding in crystal form A of hydrochloride is 1
[6]; 1,4-Dioxane
  Results after pulping (crystal form by XRPD): Crystal form A
[6]; 1 week at room temperature and 50°C
  crystal form after being pulped by different solvents (XRPD): the crystal form does not change
[6]; 2-Butanone
  Results after pulping (crystal form by XRPD): Crystal form A
[6]; 2-Methyl-tetrahydrofuran
  Results after pulping (crystal form by XRPD): Crystal form A
[6]; Acetone
  Results after pulping (crystal form by XRPD): Crystal form A
[6]; Acetonitrile
  Results after pulping (crystal form by XRPD): Crystal form A
[6]; Dichloromethane
  Results after pulping (crystal form by XRPD): Crystal form A
[6]; Ethanol
  Results after pulping (crystal form by XRPD): Crystal form A
[6]; Ethyl acetate
  Results after pulping (crystal form by XRPD): Crystal form A
[6]; Ethyl formate
  Results after pulping (crystal form by XRPD): Crystal form A
[6]; Isopropanol
  Results after pulping (crystal form by XRPD): Crystal form A
[6]; Methanol
  Results after pulping (crystal form by XRPD): Crystal form A
[6]; Methyl tert-butyl ether
  Results after pulping (crystal form by XRPD): Crystal form A
[6]; Tetrahydrofuran
  Results after pulping (crystal form by XRPD): Crystal form A
[6]; Toluene
  Results after pulping (crystal form by XRPD): Crystal form A
[6]; n-Heptane
  Results after pulping (crystal form by XRPD): Crystal form A
[7]
  crystal form change (PXRD): does not undergo crystal form change
  impurities (HPLC): do not increase significantly
